Earlier results in the PKSmart pharmacokinetics tables (Seal et al. 2025).

Experiments:
[1] = Lombardo et al. 2013, J Clin Pharmacol 53:178, doi 10.1177/0091270012440282; conditions: for Vd / clearance: in vivo, iv; for fraction unbound: plasma
[2] = Lombardo, Berellini, Obach 2018, Drug Metab Dispos 46:1466, doi 10.1124/dmd.118.082966; conditions: human; for MRT / Vd / clearance / half-life: in vivo, iv; for fraction unbound: plasma

For `COCC(=O)O[C@]1(CCN(C)CCCc2nc3ccccc3[nH]2)CCc2cc(F)ccc2[C@@H]1C(C)C`, the Vd ([1]; dog) is given as 9.7 L/kg, the clearance ([1]; dog) is given as 18.4 mL/min/kg and the clearance ([1]; rat) is given as 94 mL/min/kg. The MRT [2] was 13 h, the Vd [2] was 3.1 L/kg and the clearance [2] was 4 mL/min/kg. The half-life [2] was 13 h and the fraction unbound [2] was 0.005.

For `Cc1cn([C@H]2C=C[C@@H](CO)O2)c(=O)[nH]c1=O`, the fraction unbound ([1]; dog) is given as 0.9, the Vd ([1]; monkey) is given as 0.8 L/kg and the clearance ([1]; monkey) is given as 9.4 mL/min/kg. For the same compound, the fraction unbound ([1]; monkey) was 0.9, the Vd ([1]; rat) was 1.09 L/kg and the clearance ([1]; rat) was 20.2 mL/min/kg. The fraction unbound ([1]; rat) was 0.9, the MRT [2] was 1.4 h and the Vd [2] was 0.67 L/kg. For the same compound, the clearance [2] was 8.2 mL/min/kg, the half-life [2] was 1.4 h and the fraction unbound [2] was 1.

In the case of `CSc1ccc(C(=O)c2[nH]c(=O)[nH]c2C)cc1`, the Vd ([1]; dog) is listed as 2.1 L/kg, the clearance ([1]; dog) is listed as 26 mL/min/kg and the MRT [2] is listed as 1.33 h. For the same compound, the Vd [2] was 1.48 L/kg, the clearance [2] was 19.1 mL/min/kg and the half-life [2] was 1.94 h. For the same compound, the fraction unbound [2] was 0.3.

In the case of `NCCC(O)(P(=O)(O)O)P(=O)(O)O`, the Vd ([1]; rat) is given as 0.18 L/kg, the clearance ([1]; rat) is given as 15.2 mL/min/kg and the MRT [2] is given as 12 h. For the same compound, the Vd [2] was 1.8 L/kg, the clearance [2] was 2.5 mL/min/kg and the half-life [2] was 32 h. For the same compound, the fraction unbound [2] was 0.7.

In the case of `CCN(CC)C(=O)/C(C#N)=C/c1cc(O)c(O)c([N+](=O)[O-])c1`, the Vd ([1]; rat) is listed as 0.24 L/kg, the clearance ([1]; rat) is listed as 10.8 mL/min/kg and the MRT [2] is listed as 0.38 h. For the same compound, the Vd [2] was 0.27 L/kg and the clearance [2] was 12 mL/min/kg.

In the case of `C[C@@H](O)C1C(=O)N2C(C(=O)O)=C(S[C@@H]3CNC(C(=O)Nc4cccc(C(=O)O)c4)C3)[C@H](C)[C@H]12` (stereo partly drawn), the Vd ([1]; monkey) is given as 0.17 L/kg, the clearance ([1]; monkey) is given as 0.47 mL/min/kg and the Vd ([1]; rat) is given as 0.34 L/kg. The clearance ([1]; rat) was 10 mL/min/kg, the MRT [2] was 4.4 h and the Vd [2] was 0.12 L/kg. For the same compound, the clearance [2] was 0.45 mL/min/kg, the half-life [2] was 3.8 h and the fraction unbound [2] was 0.1.

In the case of `CC[C@@H](CO)NCCN[C@@H](CC)CO`, the Vd ([1]; dog) is listed as 3.8 L/kg, the clearance ([1]; dog) is listed as 13 mL/min/kg and the MRT [2] is listed as 2.7 h. The Vd [2] was 1.7 L/kg, the clearance [2] was 10 mL/min/kg and the half-life [2] was 3.1 h. The fraction unbound [2] was 0.18.

In the case of `O=C1c2c(O)ccc(O)c2C(=O)c2c(NCCNCCO)ccc(NCCNCCO)c21`, the Vd ([1]; dog) is listed as 26.6 L/kg, the clearance ([1]; dog) is listed as 10 mL/min/kg and the MRT [2] is listed as 25 h. The Vd [2] was 12 L/kg, the clearance [2] was 7.9 mL/min/kg and the half-life [2] was 53 h. The fraction unbound [2] was 0.25.

For `CCN(CC)CCNC(=O)c1cc(Cl)c(N)cc1OC`, the Vd ([1]; dog) is listed as 1.1 L/kg, the clearance ([1]; dog) is listed as 23.1 mL/min/kg and the Vd ([1]; rat) is listed as 3.3 L/kg. For the same compound, the clearance ([1]; rat) was 48 mL/min/kg, the fraction unbound ([1]; rat) was 0.426 and the MRT [2] was 9.4 h. The Vd [2] was 3.2 L/kg, the clearance [2] was 5.7 mL/min/kg and the half-life [2] was 7.2 h.

In the case of `CCC1(c2ccccc2)C(=O)NC(=O)NC1=O`, the Vd ([1]; dog) is given as 0.79 L/kg, the clearance ([1]; dog) is given as 0.1 mL/min/kg and the fraction unbound ([1]; dog) is given as 0.54. For the same compound, the Vd ([1]; rat) was 1.02 L/kg, the clearance ([1]; rat) was 0.8 mL/min/kg and the fraction unbound ([1]; rat) was 0.64. The MRT [2] was 140 h, the Vd [2] was 0.54 L/kg and the clearance [2] was 0.063 mL/min/kg. For the same compound, the half-life [2] was 99 h.

In the case of `CC(=O)CCCCn1c(=O)c2c(ncn2C)n(C)c1=O`, the Vd ([1]; dog) is given as 1.01 L/kg, the clearance ([1]; dog) is given as 37 mL/min/kg and the fraction unbound ([1]; dog) is given as 0.425. The Vd ([1]; rat) was 0.1 L/kg, the clearance ([1]; rat) was 7.28 mL/min/kg and the fraction unbound ([1]; rat) was 0.76. The MRT [2] was 0.77 h, the Vd [2] was 1.8 L/kg and the clearance [2] was 39 mL/min/kg. For the same compound, the half-life [2] was 1.2 h and the fraction unbound [2] was 0.51.

For `C[C@H](Cn1cnc2c(N)ncnc21)OCP(=O)(O)O`, the Vd ([1]; dog) is given as 0.9 L/kg, the clearance ([1]; dog) is given as 5.9 mL/min/kg and the clearance ([1]; monkey) is given as 16.2 mL/min/kg. The MRT [2] was 3.8 h, the Vd [2] was 0.83 L/kg and the clearance [2] was 3.1 mL/min/kg. For the same compound, the half-life [2] was 5.8 h and the fraction unbound [2] was 0.93.

For `Nc1ccn([C@@H]2O[C@H](CO)[C@@H](O)C2(F)F)c(=O)n1`, the Vd ([1]; dog) is listed as 1.41 L/kg, the clearance ([1]; dog) is listed as 10.8 mL/min/kg and the fraction unbound ([1]; dog) is listed as 0.765. The Vd ([1]; monkey) was 5.5 L/kg, the clearance ([1]; monkey) was 177 mL/min/kg and the Vd ([1]; rat) was 1 L/kg. For the same compound, the clearance ([1]; rat) was 5 mL/min/kg, the fraction unbound ([1]; rat) was 0.93 and the MRT [2] was 0.81 h. For the same compound, the Vd [2] was 1.5 L/kg, the clearance [2] was 32 mL/min/kg and the half-life [2] was 1 h. For the same compound, the fraction unbound [2] was 1.

For `CON=C(C(=O)NC1C(=O)N2C(C(=O)[O-])=C(C[n+]3ccc(N)n3CCO)CS[C@H]12)c1csc(N)n1` (stereo partly drawn), the Vd ([1]; dog) is given as 0.39 L/kg, the clearance ([1]; dog) is given as 3.5 mL/min/kg and the Vd ([1]; monkey) is given as 0.28 L/kg. The clearance ([1]; monkey) was 1.9 mL/min/kg, the Vd ([1]; rat) was 0.2 L/kg and the clearance ([1]; rat) was 9.6 mL/min/kg. For the same compound, the MRT [2] was 2.78 h, the Vd [2] was 0.3 L/kg and the clearance [2] was 1.77 mL/min/kg. For the same compound, the half-life [2] was 2.9 h.

For `CCN1CCN(C(=O)NC(C(=O)NC2C(=O)N3C(C(=O)O)C(C)(C)S[C@H]23)c2ccccc2)C(=O)C1=O` (stereo partly drawn), the Vd ([1]; dog) is given as 0.24 L/kg, the clearance ([1]; dog) is given as 6.6 mL/min/kg and the fraction unbound ([1]; dog) is given as 0.84. For the same compound, the Vd ([1]; monkey) was 0.26 L/kg, the clearance ([1]; monkey) was 7.2 mL/min/kg and the fraction unbound ([1]; monkey) was 0.95. For the same compound, the Vd ([1]; rat) was 0.39 L/kg, the clearance ([1]; rat) was 17.7 mL/min/kg and the fraction unbound ([1]; rat) was 0.61. For the same compound, the MRT [2] was 1.1 h, the Vd [2] was 0.27 L/kg and the half-life [2] was 0.96 h.

In the case of `CNC(=O)c1cccc2c(Nc3ccc(NS(C)(=O)=O)cc3OC)c3cccc(C)c3nc12`, the Vd ([1]; dog) is listed as 1 L/kg, the clearance ([1]; dog) is listed as 3.7 mL/min/kg and the fraction unbound ([1]; dog) is listed as 0.0038. For the same compound, the Vd ([1]; rat) was 2 L/kg, the clearance ([1]; rat) was 66 mL/min/kg and the fraction unbound ([1]; rat) was 0.011. For the same compound, the MRT [2] was 1.9 h, the Vd [2] was 0.3 L/kg and the clearance [2] was 2.6 mL/min/kg. The half-life [2] was 2.4 h and the fraction unbound [2] was 0.0011.

For `OC(Cn1cncn1)(Cn1cncn1)c1ccc(F)cc1F`, the Vd ([1]; dog) is given as 0.7 L/kg, the clearance ([1]; dog) is given as 0.65 mL/min/kg and the Vd ([1]; rat) is given as 0.97 L/kg. For the same compound, the clearance ([1]; rat) was 4.2 mL/min/kg, the fraction unbound ([1]; rat) was 0.9 and the MRT [2] was 40 h. For the same compound, the Vd [2] was 0.75 L/kg, the clearance [2] was 0.31 mL/min/kg and the half-life [2] was 30 h.

For `COc1cccc2c1C(=O)c1c(O)c3c(c(O)c1C2=O)C[C@@](O)(C(=O)CO)C[C@@H]3O[C@H]1C[C@H](N)[C@@H](O)[C@H](C)O1`, the Vd ([1]; dog) is given as 71.9 L/kg, the fraction unbound ([1]; dog) is given as 0.808 and the Vd ([1]; rat) is given as 0.17 L/kg. For the same compound, the clearance ([1]; rat) was 25.9 mL/min/kg, the MRT [2] was 38 h and the Vd [2] was 45 L/kg. For the same compound, the clearance [2] was 20 mL/min/kg and the half-life [2] was 36 h.

In the case of `CC(C)NCC(O)COc1cccc2ccccc12` (stereo not drawn), the Vd ([1]; dog) is listed as 6.79 L/kg, the clearance ([1]; dog) is listed as 51.8 mL/min/kg and the fraction unbound ([1]; dog) is listed as 0.04. The Vd ([1]; monkey) was 2.28 L/kg, the clearance ([1]; monkey) was 20.8 mL/min/kg and the fraction unbound ([1]; monkey) was 0.03. The Vd ([1]; rat) was 4.58 L/kg, the clearance ([1]; rat) was 94.3 mL/min/kg and the fraction unbound ([1]; rat) was 0.1. For the same compound, the MRT [2] was 4.3 h, the Vd [2] was 3.1 L/kg and the clearance [2] was 12 mL/min/kg. For the same compound, the half-life [2] was 3.4 h.

In the case of `COc1ccc(C(CN(C)C)C2(O)CCCCC2)cc1` (stereo not drawn), the Vd ([1]; dog) is given as 3.3 L/kg, the clearance ([1]; dog) is given as 13.5 mL/min/kg and the fraction unbound ([1]; dog) is given as 0.593. The Vd ([1]; monkey) was 3.5 L/kg, the clearance ([1]; monkey) was 41 mL/min/kg and the fraction unbound ([1]; monkey) was 0.708. The Vd ([1]; rat) was 6.6 L/kg, the clearance ([1]; rat) was 64.5 mL/min/kg and the MRT [2] was 5.2 h. The Vd [2] was 4.4 L/kg, the clearance [2] was 14 mL/min/kg and the half-life [2] was 5 h.

For `CON=C(C(=O)NC1C(=O)N2C(C(=O)[O-])=C(C[n+]3cccc4c3CCC4)CS[C@H]12)c1csc(N)n1` (stereo partly drawn), the Vd ([1]; dog) is given as 0.22 L/kg, the clearance ([1]; dog) is given as 3.2 mL/min/kg and the fraction unbound ([1]; dog) is given as 0.542. The Vd ([1]; monkey) was 0.27 L/kg, the clearance ([1]; monkey) was 2.4 mL/min/kg and the fraction unbound ([1]; monkey) was 0.446. The Vd ([1]; rat) was 0.3 L/kg, the clearance ([1]; rat) was 9.5 mL/min/kg and the MRT [2] was 2.1 h. For the same compound, the Vd [2] was 0.24 L/kg, the clearance [2] was 1.9 mL/min/kg and the half-life [2] was 1.7 h. The fraction unbound [2] was 0.9.

For `Nc1ncnc2c1ncn2CCOCP(=O)(O)O`, the Vd ([1]; dog) is given as 1.3 L/kg, the clearance ([1]; dog) is given as 5.3 mL/min/kg and the Vd ([1]; monkey) is given as 0.81 L/kg. For the same compound, the clearance ([1]; monkey) was 16 mL/min/kg, the Vd ([1]; rat) was 1.6 L/kg and the clearance ([1]; rat) was 22 mL/min/kg. The MRT [2] was 1.9 h, the Vd [2] was 0.42 L/kg and the clearance [2] was 3.7 mL/min/kg. For the same compound, the half-life [2] was 1.6 h.

In the case of `O=C(CCCN1CCC(O)(c2ccc(Cl)cc2)CC1)c1ccc(F)cc1`, the Vd ([1]; dog) is listed as 37 L/kg, the Vd ([1]; monkey) is listed as 3.7 L/kg and the Vd ([1]; rat) is listed as 10.4 L/kg. For the same compound, the fraction unbound ([1]; rat) was 0.24, the MRT [2] was 36 h and the Vd [2] was 17 L/kg. The half-life [2] was 35 h.
